Measured values reported in patent US8012950B2, “Method to diagnose and treat degenerative joint disease” (Wisconsin Alumni Research Foundation, priority 2003, dated 2011).

How the values were obtained:
[1] = molecular target: T1, recombinant human cathepsin K (Homo sapiens, UniProt P43235); assay: Cathepsin K inhibition assay; type: biochemical
T1 sequence (P43235 115-329): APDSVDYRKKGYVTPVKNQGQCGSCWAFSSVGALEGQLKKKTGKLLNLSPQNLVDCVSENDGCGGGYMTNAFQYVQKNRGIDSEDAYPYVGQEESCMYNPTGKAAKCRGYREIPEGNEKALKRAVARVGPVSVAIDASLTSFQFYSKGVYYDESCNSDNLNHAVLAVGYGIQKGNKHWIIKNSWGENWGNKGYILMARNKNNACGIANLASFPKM
Procedure: Cathepsin K Inhibition Assay: The cathepsin K inhibition assay was modified from a previously described protocol (Votta et al., 1997). Doxycycline, tetracycline and minocycline were dissolved in 0.1 M Tris/0.15M NaCl buffer, pH 7.4. COL-3 was dissolved in 100% ethanol. NPI-3469 was dissolved in dimethylsulphoxide. Ten microliters of doxycycline, tetracycline, minocycline, COL-3, and NPI-3469 were dissolved in buffer and an equal volume of 0.125 μM rh-human cathepsin K standard dissolved in 100 mM sodium acetate buffer, pH 5.5 were mixed in a 96-well microplate and incubated at approximately 25° C. (room temperature) for 15 minutes. Concentrations of the candidate inhibiting compound in the initial mixture were prepared at 10^-7 to 10^-3M. Then 180 μl of an MCA substrate buffer containing 100 mM sodium acetate buffer pH 5.5, 2.5 mM dithiothreitol, 2.5 mM EDTA, and 5 μ[…] substrate (Peptides International, Louisville, KY) was added to the mixture. The microplate was incubated for 60 minutes at approximately 25° C. The fluorescence of each well was then determined using a fluorescent microplate reader set at 360 nm excitation/460 nm emission. Data Analysis: The residual collagenolytic enzyme activity as a percentage of the control was calculated for each concentration of each inhibiting compound. All dilutions of each inhibiting compound were assayed in duplicate and a mean value was calculated for each well.

[2] = molecular target: T2, recombinant human MMP-13 (collagenase 3) (Homo sapiens, UniProt P45452); assay: Matrix metalloproteinase-13 inhibition assay; type: biochemical; settings: at 1 mM concentrations
T2 construct: purchased Chondrex, Inc., Redmond, Wash; Cat. No. 3003
Procedure: Matrix Metalloproteinase-13 Inhibition Assay: The MMP-13 (collagenase 3) inhibition assay used a commercially available kit (Chondrex, Inc., Redmond, Wash., Cat. No. 3003) The recombinant human MMP-13 (collagenase 3) was activated by adding 5 μl of a 10 μg/ml solution of recombinant human MMP-13, 90 μl of sample dilution and reaction buffer (Solution B), and 5 μl of p-aminophenylmercuric acetate to each well of a microplate. The microplate was then incubated for 60 minutes at 35° C. Ten microliters of proteinase inhibitor was then added to each well to neutralize non-collagenolytic proteases in the sample solutions. Twenty five microliters of doxycycline, tetracycline, minocycline, COL-3, NPI-3469 (dissolved in buffer as previously described) and 25 μl of solution B were added to each well. Concentrations of the candidate inhibiting compounds in the initial mixture were prepared at 10^−7 to 10^−3 M using solution B. After the microplate was incubated at approximately 25° C. for 30 minutes, 10 μl of stop solution was added to each well and the fluorescence of each well was then determined using a fluorescent microplate reader set at 360 nm excitation/460nm emission. Data Analysis: The residual collagenolytic enzyme activity as a percentage of the control was calculated for each concentration of each inhibiting compound. All dilutions of each inhibiting compound were assayed in duplicate and a mean value was calculated for each well.

[3] = Pharmacokinetic study of oral NPI 3469 in the dog; type: in vivo; settings: 4 beagles, single oral dose 1 mg/kg
Procedure: Pharmacokinetics of oral NPI 3469 (NAEJA Pharmaceuticals, Edmonton, Alberta, Canada) in the dog. We have conducted a pharmokinetic study in 4 beagles using a single oral dose of NPI 3469 given at 1 mg/kg and pharmacokinetic parameters have been determined.

SMILES	inhibition of cathepsin K ([1]; at 1 μm) [%]	inhibition of cathepsin K ([1]; at 10 μm) [%]	inhibition of matrix metalloproteinase-13 [2] [%]	inhibition of matrix metalloproteinase-13 (in words) [2]	adverse effects during the treatment period [3]
CC(C)C[C@H](NC(=O)OCc1ccccc1)C(=O)NC1=CNC2(CCCC2)NC1=O [NPI-3469, 5-(carbobenzoxy-L-leucyl)amino-2,2-tetramethylene-2,3-dihydro-1H-pyrimidin-4-one]	47	75	–	did not inhibit	No adverse effects
CN(C)[C@@H]1C(O)=C(C(N)=O)C(=O)[C@@]2(O)C(O)=C3C(=O)c4c(O)cccc4[C@@](C)(O)[C@H]3C[C@@H]12 [tetracycline]	–	–	49	–	–

Now from value to compound, other results behind:

inhibition of cathepsin K ([1]; at 1 μm) [%]	inhibition of cathepsin K ([1]; at 10 μm) [%]	inhibition of matrix metalloproteinase-13 [2] [%]	inhibition of matrix metalloproteinase-13 (in words) [2]	SMILES	adverse effects during the treatment period [3]
25	56	57	–	NC(=O)C1=C(O)CC2CC3Cc4cccc(O)c4C(=O)C3=C(O)C2(O)C1=O (stereo not shown) [COL-3, 4-dedimethylaminosancycline]	–
–	–	–	did not inhibit	C[C@H]1c2cccc(O)c2C(=O)C2=C(O)[C@]3(O)C(=O)C(C(N)=O)=C(O)[C@@H](N(C)C)[C@@H]3[C@@H](O)[C@@H]21 [doxycycline]	–
–	–	85	–	CN(C)c1ccc(O)c2c1C[C@H]1C[C@H]3[C@H](N(C)C)C(O)=C(C(N)=O)C(=O)[C@@]3(O)C(O)=C1C2=O [minocycline]	–
